The supplement of paper PMC10627819

Legend:
S. aureus Newman [1] = assay: fitness (endpoint OD595 vs no drug) (fraction); higher = more growth; details: one replicate
Summary of the method: (§1)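 Cultures at OD595 0.01 were dispensed into 384-well plates in TSB, LB Lennox or CY and incubated at 37 °C. Every 30 min for 14 h, OD595 was read and corrected by the first reading. Fitness is the optical density at entry into stationary phase relative to the robust mean of no-drug control wells, capped at 1.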

B. subtilis 168 [2] = assay: as above
Summary of the method: as §1

S. aureus Newman [3] = assay: Bliss interaction score (quartile over a dose matrix) (fitness difference); higher = more antagonism (negative = synergy)
Summary of the method: (§2)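 Fitness was derived from optical density at entry into stationary phase, divided by the robust mean of the no-drug wells on the same plate. That reading was taken as OD595, and the ratio was capped at 1. Single-drug fitness was inferred from the combination data. The Bliss score, observed fitness minus the expected product of single-drug fitness, was summarised as quartiles over technical, biological and donor/recipient replicates.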

S. pneumoniae D39V = assay: as above
Summary of the method: as §2

B. subtilis 168 [4] = assay: as above
Summary of the method: as §2

S. aureus DSM 20231 = assay: as above
Summary of the method: as §2
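Wherever Bliss interaction score (quartile over a dose matrix) is given: first quartile when negative (synergy) and third quartile when positive (antagonism).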

CO/N=C(\C(=O)N[C@@H]1C(=O)N2C(C(=O)O)=C(COC(N)=O)CS[C@H]12)c1ccco1 [Cefuroxime] + C[n+]1ccc(-c2cc[n+](C)cc2)cc1 [Paraquat]
fitness
Details | first compound 0.04875 µg/mL | first compound 0.0975 µg/mL | first compound 0.195 µg/mL
B. subtilis 168 [2], partner 1.25 µg/mL | 0.705 | 0.633 | 0.539
B. subtilis 168 [2], partner 2.5 µg/mL | 0.682 | 0.625 | 0.522
B. subtilis 168 [2], partner 5 µg/mL | 0.632 | 0.584 | 0.366
S. aureus Newman [1], partner 1.25 µg/mL | 0.955 | 0.906 | 0.963
S. aureus Newman [1], partner 2.5 µg/mL | 0.88 | 0.924 | 0.937
S. aureus Newman [1], partner 5 µg/mL | 0.993 | 0.907 | 0.939

fitness, B. subtilis 168 [2], one replicate
Details | first compound 1.562 µg/mL | first compound 3.125 µg/mL | first compound 6.25 µg/mL
partner 1.25 µg/mL | 0.224 | 0.144 | 0.0805
partner 2.5 µg/mL | 0.179 | 0.131 | 0.0628
partner 5 µg/mL | 0.147 | 0.0619 | 0.0182

Details | Bliss interaction score
B. subtilis 168 [4] | -0.0801
S. aureus DSM 20231 | 0.0764
S. aureus Newman [3] | -0.0456
S. pneumoniae D39V | -0.0322

CO/N=C(\C(=O)N[C@@H]1C(=O)N2C(C(=O)O)=C(COC(N)=O)CS[C@H]12)c1ccco1 [Cefuroxime] + Cc1cc(NS(=O)(=O)c2ccc(N)cc2)no1 [Sulfamethoxazol]
fitness
Details | first compound 0.04875 µg/mL | first compound 0.0975 µg/mL | first compound 0.195 µg/mL
B. subtilis 168 [2], partner 1 µg/mL | 0.708 | 0.67 | 0.404
B. subtilis 168 [2], partner 2 µg/mL | 0.709 | 0.632 | 0.398
B. subtilis 168 [2], partner 4 µg/mL | 0.687 | 0.636 | 0.5
S. aureus Newman [1], partner 1 µg/mL | ≥ 1 | 0.954 | 0.879
S. aureus Newman [1], partner 2 µg/mL | 0.953 | 0.966 | 0.836
S. aureus Newman [1], partner 4 µg/mL | 0.986 | 0.935 | 0.84

fitness, B. subtilis 168 [2], one replicate
Details | first compound 0.195 µg/mL | first compound 0.39 µg/mL | first compound 0.78 µg/mL | first compound 1.562 µg/mL | first compound 3.125 µg/mL | first compound 6.25 µg/mL
partner 0.5 µg/mL | 0.405 | 0.438 | 0.356 | – | – | –
partner 1 µg/mL | – | 0.0396 | 0.107 | 0.267 | 0.221 | 0.202
partner 2 µg/mL | – | 0.29 | 0.262 | 0.251 | 0.198 | 0.132
partner 4 µg/mL | – | – | – | 0.252 | 0.206 | 0.162

Details | Bliss interaction score
B. subtilis 168 [4] | -0.0536
S. aureus DSM 20231 | 0.111
S. aureus Newman [3] | -0.0351
S. pneumoniae D39V | -0.0409

CO/N=C(\C(=O)N[C@@H]1C(=O)N2C(C(=O)O)=C(COC(N)=O)CS[C@H]12)c1ccco1 [Cefuroxime] + Cc1ncc([N+](=O)[O-])n1CCO [Metronidazole]
fitness
Details | partner 0.625 µg/mL | partner 1.25 µg/mL | partner 2.5 µg/mL
B. subtilis 168 [2], first compound 0.04875 µg/mL | 0.741 | 0.767 | 0.715
B. subtilis 168 [2], first compound 0.195 µg/mL | 0.547 | 0.515 | 0.497
S. aureus Newman [1], first compound 0.04875 µg/mL | ≥ 1 | 0.923 | 0.993
S. aureus Newman [1], first compound 0.0975 µg/mL | 0.897 | 0.939 | 0.918
S. aureus Newman [1], first compound 0.195 µg/mL | 0.943 | 0.978 | 0.921

fitness, B. subtilis 168 [2], one replicate
Details | first compound 1.562 µg/mL | first compound 3.125 µg/mL | first compound 6.25 µg/mL
partner 0.625 µg/mL | 0.428 | 0.372 | 0.251
partner 1.25 µg/mL | 0.376 | 0.268 | 0.242
partner 2.5 µg/mL | 0.287 | 0.219 | 0.15

Details | Bliss interaction score
B. subtilis 168 [4] | 0.0643
S. aureus DSM 20231 | 0.132
S. aureus Newman [3] | -0.0487
S. pneumoniae D39V | -0.0335
